Here are results for eleven molecules from ChEMBL document CHEMBL1201862, “PubChem BioAssay data set” (2004).

“And” between values parts separate entries of the source, which are not always exact repeats. Equal values may be shown once.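 48-hour exposure; five concentrations; linearly interpolated endpoints. GI50: concentration for 50% inhibition of growth.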 The source made the active and inactive calls. Rule as the data show it: active = GI50 up to about 1.1 µM and inactive = higher. Where a SMILES comes first, the peptide text is derived from it. The star is where a group is joined. Boc = CC(C)(C)OC(=O)*

Some test systems named below: U-251; OVCAR-4; SK-MEL-28; SK-MEL-2; SK-OV-3; HOP-92; UACC-62; NCI-H522; UO-31; HCT-116; SR; LOX IMVI; SNB-19; KM12; SN12C; Hs-578T; OVCAR-8; IGROV-1; RPMI-8226; A498.
What all share (experiment): NCI tumour cell line growth inhibition, 48 h

For `[O-][s+]1c2c(Cc3ccccc3)c(Cc3ccccc3)c1CCc1cccc(c1)CC2`, the GI50 was 13.9 µM (inactive) in the test with U-251; 5.02 µM (inactive) in the test with OVCAR-4; 20.7 µM (inactive) in the test with SK-MEL-28; 17 µM (inactive) in the test with SK-MEL-2; 10.7 µM (inactive) in the test on SK-OV-3; 13.4 µM (inactive) in the test on HOP-92. The GI50 was 10.9 µM (inactive) in the test with UACC-62; 11.3 µM (inactive) with NCI-H522; 12.9 µM (inactive) with UO-31; 8.99 µM (inactive) with HCT-116; 17.2 µM (inactive) in the test on SR; 14 µM (inactive) in the test with LOX IMVI. Further, the GI50 is 14.6 µM (inactive) with SNB-19; 12.2 µM (inactive) in the test on KM12; 16.2 µM (inactive) with SN12C; 18.2 µM (inactive) in the test on Hs-578T; 13.3 µM (inactive) in the test on OVCAR-8.

In the case of `CCOc1ccc(/N=N/c2ccc(-c3ccc(/N=N/c4c(O)ccc5cc(S(=O)(=O)O)cc(S(=O)(=O)O)c45)cc3)cc2)cc1`, the GI50 with U-251, in the test with OVCAR-4, in the test with SK-MEL-28, in the test with SK-MEL-2, in the test with SK-OV-3 and with HOP-92 was > 100 µM (inactive) each time. Besides, the GI50 in the test with UACC-62 was > 100 µM (inactive); in the test with IGROV-1, > 100 µM (inactive); with NCI-H522, 63.2 µM (inactive); with UO-31 it was > 100 µM (inactive); with HCT-116, > 100 µM (inactive); with SR, 66.2 µM (inactive). The GI50 in the test with SNB-19, in the test with RPMI-8226, with KM12, in the test on Hs-578T and with OVCAR-8 was > 100 µM (inactive) each time.

On to `CCOC(=O)C(NCc1ccccc1)(NC(=O)c1ccccc1)C(F)(F)F` (stereo not given), for which the GI50 in the test with U-251 was > 100 µM (inactive); with OVCAR-4, 45.3 µM (inactive); in the test with SK-MEL-28, > 100 µM (inactive); in the test with SK-MEL-2 it was > 100 µM (inactive); in the test with SK-OV-3 it was > 100 µM (inactive); with HOP-92, 42.3 µM (inactive). Also, the GI50 in the test on UACC-62 is > 100 µM (inactive); with IGROV-1 it was > 100 µM (inactive); in the test with NCI-H522, 35.6 µM (inactive); in the test with UO-31, 46.6 µM (inactive); in the test on HCT-116, > 100 µM (inactive); in the test with SR, 32.1 µM (inactive). The GI50 in the test on LOX IMVI is 95.1 µM (inactive); with SNB-19, > 100 µM (inactive); in the test with RPMI-8226 it was 33.3 µM (inactive); in the test on KM12, 81.5 µM (inactive); in the test with SN12C, > 100 µM (inactive); in the test with Hs-578T, > 100 µM (inactive). The GI50 with OVCAR-8 was 98.9 µM (inactive).

On to `Cc1cc2c(cc1Cl)Sc1nnc(C)n1S2(=O)=O`, for which the GI50 in the test with U-251 is 15.1 µM (inactive); with OVCAR-4 it was 12.5 µM (inactive); in the test on SK-MEL-28 it was 16.9 µM (inactive); in the test on SK-OV-3, 26.6 µM (inactive); with HOP-92, 2.84 µM (inactive); in the test on UACC-62, 15 µM (inactive). Also, the GI50 was 12.3 µM (inactive) in the test on IGROV-1; 8.69 µM (inactive) in the test on NCI-H522; 10.6 µM (inactive) in the test with UO-31; 14.8 µM (inactive) with A498; 16.1 µM (inactive) in the test on HCT-116; 10.1 µM (inactive) with LOX IMVI. Further, the GI50 with SNB-19 was 23.5 µM (inactive); in the test on KM12, 15.5 µM (inactive); in the test on SN12C it was 14.8 µM (inactive); with Hs-578T, 28.9 µM (inactive); with OVCAR-8, 17.5 µM (inactive).

Regarding `CC1CCC2(C(=O)O)CCC3(C)C(=CCC4C5(C)CCC(O)C(C)(C)C5CCC43C)C2C1C` (stereo not given), the GI50 with U-251 is 9.68 µM (inactive) and 17.8 µM (inactive); in the test on OVCAR-4, 17.3 µM (inactive) and 13.3 µM (inactive); in the test on SK-MEL-2, 11.2 µM (inactive) and 15.9 µM (inactive); in the test with SK-OV-3, 18.2 µM (inactive) and 15.5 µM (inactive); in the test with HOP-92, 18.4 µM (inactive) and 11.9 µM (inactive); in the test on UACC-62, 19.6 µM (inactive) and 10.8 µM (inactive). The GI50 is 13.4 µM (inactive) and 18.2 µM (inactive) in the test with IGROV-1; 6.75 µM (inactive) and 4.07 µM (inactive) in the test with UO-31; 14.4 µM (inactive) and 7.28 µM (inactive) in the test on HCT-116; 19.5 µM (inactive) with SR; 4.13 µM (inactive) and 6.59 µM (inactive) with LOX IMVI; 10.3 µM (inactive) in the test with SNB-19. In addition, the GI50 with RPMI-8226 was 10.6 µM (inactive) and 7.1 µM (inactive); in the test on KM12, 6.62 µM (inactive) and 9.29 µM (inactive); in the test with SN12C it was 10.3 µM (inactive) and 18 µM (inactive); with Hs-578T, 8.71 µM (inactive); in the test with OVCAR-8 it was 13.8 µM (inactive) and 8.3 µM (inactive).

Consider `COC(=O)C(Cc1c[nH]c2ccccc12)NC(=O)C(Cc1c[nH]c2ccccc12)NC(=O)C(Cc1c[nH]c2ccccc12)NC(=O)OC(C)(C)C` (stereo not drawn) (Boc-Trp-Trp-Trp-OMe; configuration not given here), for which the GI50 in the test on U-251 was 18.5 µM (inactive); in the test with SK-MEL-28, 17.7 µM (inactive); with SK-MEL-2, 17.3 µM (inactive); in the test with HOP-92, 13.2 µM (inactive); in the test with UACC-62, 18.8 µM (inactive); in the test with IGROV-1, 18.7 µM (inactive). For the same molecule, the GI50 with UO-31 was 24.3 µM (inactive); in the test with A498, 53.5 µM (inactive); with HCT-116, 16.2 µM (inactive); in the test on SNB-19, 18.9 µM (inactive); in the test on RPMI-8226 it was 27.2 µM (inactive); with KM12, 21.5 µM (inactive). Further, the GI50 in the test with SN12C is 18.9 µM (inactive); in the test on Hs-578T, 17.7 µM (inactive); in the test on OVCAR-8, 20.7 µM (inactive).

As for `C[C@]12c3c4cc(NC(=O)C(=O)NCc5ccc(-c6ccccn6)nc5)cc3Oc3cc(NC(=O)C(=O)NCc5ccc(-c6ccccn6)nc5)cc(c31)OC1C=C(NC(=O)C(=O)NCc3ccc(-c5ccccn5)nc3)C=C(O4)C12` (stereo not given in full), the GI50 in the test with U-251 is 84.9 µM (inactive); in the test with OVCAR-4 it was 3.47 µM (inactive); in the test with SK-MEL-28, 95.1 µM (inactive); in the test on SK-MEL-2 it was 38.7 µM (inactive); with SK-OV-3 it was 17 µM (inactive); with UACC-62, 24.5 µM (inactive). The GI50 was 16.9 µM (inactive) in the test with IGROV-1; 66.5 µM (inactive) in the test with NCI-H522; 22.3 µM (inactive) with UO-31; 29.2 µM (inactive) in the test on HCT-116; 3.83 µM (inactive) with SR; 17.6 µM (inactive) in the test with LOX IMVI. Also, the GI50 in the test with SNB-19 was > 100 µM (inactive); in the test with RPMI-8226, 42.1 µM (inactive); with KM12, 16.3 µM (inactive); in the test with SN12C it was 40.9 µM (inactive); in the test with Hs-578T, > 100 µM (inactive); in the test on OVCAR-8, 21.9 µM (inactive).

As to `COc1ccc2nc3cccc([N+](=O)[O-])c3c(NCCN(C)C)c2c1`, the GI50 with U-251 was 0.149 µM (active); in the test with OVCAR-4 it was 0.116 µM (active); in the test on SK-MEL-28, 0.161 µM (active); in the test on SK-MEL-2, 0.127 µM (active); in the test on SK-OV-3, 0.255 µM (active); in the test with HOP-92, 0.057 µM (active). For the same molecule, the GI50 in the test on IGROV-1 is 0.167 µM (active); with NCI-H522, 0.0209 µM (active); in the test on UO-31, 0.176 µM (active); in the test on A498, 0.17 µM (active); in the test with HCT-116, 0.0251 µM (active); in the test on LOX IMVI, 0.0325 µM (active). The GI50 in the test on SNB-19 was 0.282 µM (active); in the test on RPMI-8226, 0.0318 µM (active); in the test with KM12, 0.158 µM (active); in the test on SN12C it was 0.11 µM (active); in the test with Hs-578T, 0.242 µM (active); in the test with OVCAR-8, 0.0638 µM (active).

On to `Nc1nc2c(c(-c3cccc(Cl)c3)n1)COC/C2=C\c1cccc(Cl)c1`, for which the GI50 in the test on U-251, with OVCAR-4, in the test with SK-MEL-28, in the test on SK-MEL-2, in the test with SK-OV-3 and in the test with HOP-92 was > 100 µM (inactive) each time. For the same molecule, the GI50 in the test on UACC-62 was > 100 µM (inactive); in the test with IGROV-1, 94.2 µM (inactive); with NCI-H522 it was > 100 µM (inactive); with UO-31, 25 µM (inactive); with A498 it was > 100 µM (inactive); in the test with HCT-116, > 100 µM (inactive). Further, the GI50 is > 100 µM (inactive) in the test on LOX IMVI; > 100 µM (inactive) in the test with SNB-19; > 100 µM (inactive) with RPMI-8226; 85.1 µM (inactive) in the test on KM12; > 100 µM (inactive) in the test on SN12C; 45.6 µM (inactive) in the test on Hs-578T. In addition, in the test with OVCAR-8, the GI50 is > 100 µM (inactive).

Regarding `CC(C)[C@H](NC(=O)[C@H](N)Cc1ccc(N(CCCl)CCCl)cc1)C(=O)O`, the GI50 in the test with U-251 was > 100 µM (inactive); in the test with OVCAR-4, > 100 µM (inactive); with SK-MEL-28, > 100 µM (inactive); in the test on SK-MEL-2, > 100 µM (inactive); in the test on SK-OV-3 it was > 100 µM (inactive); in the test with HOP-92 it was 9.82 µM (inactive). The GI50 in the test on UACC-62, with IGROV-1, in the test on NCI-H522, in the test with UO-31, with A498 and in the test on HCT-116 was > 100 µM (inactive) each time. For the same molecule, the GI50 in the test on LOX IMVI, in the test on SNB-19, in the test on RPMI-8226, in the test on KM12, in the test on SN12C and with Hs-578T was > 100 µM (inactive) in each case. In the test on OVCAR-8, the GI50 was > 100 µM (inactive).

For `O=C(C[C@@H]1CCCN2CCCC[C@H]12)N1c2ccccc2Sc2ccc(Cl)cc21`, the GI50 in the test on U-251 is 12.1 µM (inactive); in the test with SK-MEL-28, 13.2 µM (inactive); in the test with IGROV-1 it was 12.6 µM (inactive); with NCI-H522, 13.5 µM (inactive); in the test on UO-31 it was 12.9 µM (inactive); in the test on HCT-116, 16 µM (inactive). The GI50 in the test on SR was 19.3 µM (inactive); in the test on LOX IMVI, 13.7 µM (inactive); in the test with SNB-19 it was 16.1 µM (inactive); with RPMI-8226, 20.2 µM (inactive); in the test with KM12, 13.3 µM (inactive); in the test on SN12C, 16.7 µM (inactive). Besides, the GI50 with Hs-578T was 17.1 µM (inactive); with OVCAR-8, 19.3 µM (inactive).
